The results in this text go back to patent publication EP0454060B1, “3-(Mercaptoalkyl)-quinazoline-2,4(1H,3H)-diones, processes for their preparation, and pharmaceutical compositions” (priority 1990, dated 1991).

Assay [1] deals with Herpes simplex Typ 1. Nature of the assay: One-step replication cycle on chick embryo cells. Particulars: Beispielreihe 2, HEZ. The assay is classed as cell-based.
Assay [2] relates to Vesicular-stomatitis Indiana. Nature of the assay: One-step replication cycle on chick embryo cells. The assay is classed as cell-based. Particulars: Beispielreihe 2, HEZ.
In assay [3] the test system is SE-spezifischen IgM- und IgG-PBZ. Kind of assay: Haemolysis plaque test (immunostimulation). It counts as in vivo, Maus (Inzuchtstamm CBA). Particulars: 2,0 mg/kg daily over 5 days, peroral, p < 0,001. An excerpt: (§1) Der Nachweis immunstimulierender Effekte wurde weiterhin an der Maus (Inzuchtstamm CBA) und u. a. mit Hilfe folgender Nachweismethoden geführt: • Plaque-Test zum Nachweis von SE-spezifischen IgM- und IgG-PBZ, • Rosettentest.
Aus den Werten wird deutlich, daß die Verbindungen der allgemeinen Formel I einen gut nachweisbaren Effekt auf die Effektor-T-Lymphozyten-abhängige verzögerte Uberempfindlichkeit haben. Kontaktdermatitis-Werte ab 120 (≙ 20 % Steigerung gegenüber der Kontrolle) bzw. unter 80 werden als Nachweis eines stimulatorischen bzw. suppressorischen Effektes angesehen. Antikörpertiter-Differenzen von >+1 bzw. <-1 verdeutlichen den stimulatorischen bzw. suppressorischen Effekt der Substanzen auf die humorale Immunantwort. 2. Untersuchungen zur immunstimulierenden Wirkung • 2.1 Plaque-Test zum Nachweis von SE-spezifischen IgM- und IgG-PBZ Zur Prüfung immunstimulierender Effekte wurde u. a. auch der Einfluß von Verbindungen der allgemeinen Formel I auf die humorale Immunantwort an Mäusen des Inzuchtstammes CBA und mittels Hämolyse-Plaque-Test (HPT) untersucht. Diese Technik erlaubt die quantitative und getrennte Erfassung IgM- und IgG-Antikörper produzierender Zellen (= Plaque bildende Zellen; PBZ). […]

Assay [4] has as its system Vesicular-stomatitis Indiana. Nature of the assay: Plaque reduction test on primary HEZ. It counts as cell-based. In general terms: Plaques are areas of infected cells; plaque reduction assays count them against a control.
For assay [5], the system named is Influenza A/WSN. Kind of assay: Plaque reduction test on primary HEZ. Particulars: mean of two experiments.
For assay [6], the system named is SE-spezifischer rosettenbildender Zellen. Kind of assay: Rosette test (SE-specific rosettes). It counts as in vivo, Maus (Inzuchtstamm CBA). Particulars: oral administration.
From the text: as §1
Aus den Werten wird deutlich, daß die Verbindungen der allgemeinen Formel I einen gut nachweisbaren Effekt auf die Effektor-T-Lymphozyten-abhängige verzögerte Uberempfindlichkeit haben. Kontaktdermatitis-Werte ab 120 (≙ 20 % Steigerung gegenüber der Kontrolle) bzw. unter 80 werden als Nachweis eines stimulatorischen bzw. suppressorischen Effektes angesehen. Antikörpertiter-Differenzen von >+1 bzw. <-1 verdeutlichen den stimulatorischen bzw. suppressorischen Effekt der Substanzen auf die humorale Immunantwort. 2. Untersuchungen zur immunstimulierenden Wirkung • 2.1 Plaque-Test zum Nachweis von SE-spezifischen IgM- und IgG-PBZ Zur Prüfung immunstimulierender Effekte wurde u. a. auch der Einfluß von Verbindungen der allgemeinen Formel I auf die humorale Immunantwort an Mäusen des Inzuchtstammes CBA und mittels Hämolyse-Plaque-Test (HPT) untersucht. Diese Technik erlaubt die quantitative und getrennte Erfassung IgM- und IgG-Antikörper produzierender Zellen (= Plaque bildende Zellen; PBZ). Die Immunisierung mit Schaferythrozyten (SE) erfolgte am Tag 0, die Substanzapplikation (Tagesdosis 1.10^-5 mol/kg Körpermasse; peroral) an den Tagen -1 bis +3 (zur Erfassung der IgM-PBZ) bzw. an den Tagen +1 bis +5 (zur Erfassung der IgG-PBZ). • 2.2 Ergebnisse: Durch tägliche und über 5 Tage gehende Gabe von 2,0 mg der Verbindung gemäß Beispiel 1 pro kg Körpermasse konnte die Zahl der IgM-PBZ auf einen Durchschnittswert von 352 % im Vergleich zur Kontrolle (100 %) gesteigert werden. Die gleiche Form der Behandlung führte zu einer Erhöhung der IgG-PBZ auf 497 % (Kontrolle: 100 %). In beiden Fällen erwies sich die Differenz zur Kontrolle im t-Test mit p < 0,001 als signifikant. […]

Where [7] appears, read: 125 µmol/l, mean of three experiments.
[8] abbreviates: 125 µmol/l, n.s. = nicht signifikant.
[9] abbreviates: 250 µmol/l, mean of three experiments.

As for `O=c1[nH]c2ccccc2c(=O)n1CCS` [Beispiel 1, 3-(2-Mercaptoethyl)-chinazolin-2,4(1H,3H)-dion], the “Senkung des Virusertrages im Vergleich zur unbehandelten Kontrolle” value in assay [1] (setting [7]) was 0,33 log10 TCID50/0,2 ml; in assay [1] (setting [9]) it was 1,0 log10 TCID50/0,2 ml; in assay [2] (setting [7]) it was 0,5 log10 TCID50/0,2 ml; in assay [2] (setting [9]) it was 3,0 log10 TCID50/0,2 ml. The “% Hemmung” value in assay [1] (setting [8]) is “n. s”; in assay [1] (setting [9]), 99%; in assay [2] (setting [8]) it was “n. s”; in assay [2] (setting [9]) it was 99,9%. For the same molecule, the “IgG-PBZ (Kontrolle: 100 %)” value in assay [3] (days +1 to +5) is given as 497%. Further, the “Zahl der IgM-PBZ im Vergleich zur Kontrolle (100 %)” value in assay [3] (days -1 to +3, average value) is listed as 352%. Also, the “Plaquereduktion in % zur Viruskontrolle auf primären HEZ” value is given as 15% in assay [4] (125 µmol/l, mean of two experiments); 45 ^x % in assay [4] (250 µmol/l, footnote x = keine signifikante Wirkung); 0% in assay [4] (62,5 µmol/l, mean of two experiments, 62.5 µM); 98% in assay [5] (125 µmol/l); 100% in assay [5] (250 µmol/l); 85% in assay [5] (31,25 µmol/l, 31.25 µM). For the same molecule, the “Plaquereduktion in % zur Viruskontrolle auf primären HEZ” value in assay [5] (62,5 µmol/l, 62.5 µM) is on record as 92%.
For the molecule `COc1cc2[nH]c(=O)n(CCCS)c(=O)c2cc1OC` [Beispiel 2, 3-(3-Mercaptoprop-1-yl)-6,7-dimethoxychinazolin-2,4(1H,3H)-dion], the “SE-spezifischer rosettenbildender Zellen” value in assay [6] is listed as “signifikante Förderung”.
